Assay results as given in patent publication US3974135A, “Synthetic decapeptide having the activity of the luteinizing hormone releasing hormone and method for producing the same” (priority 1972, dated 1976).
“And” between values parts separate entries of the source, which are not always exact repeats. Identical values can stand only once.

Test system: LH
Experiment: LRH assay in vivo in rats: serum LH by radioimmunoassay before and after injection of the peptide
Settings: for increase of the LH level: in vivo assay in rats; for mμg LH/ml serum before: before injection
Experimental: The LRH assay was performed by the procedure of Ramirez and McCann (Endocrinology 73, 193 (1963) ). Serum assays for LH were performed in duplicate by the double antibody radioimmuno assay of Niswender et al. (Proc. Soc. Exp. Biol. Med. 128, 807 (1968)) using antiovine LH serum and ovine LH-^131 I. The activity was determined by comparison of LH levels before and after injection of the peptide.

Row | SMILES | doses at which it releases LRH (active dose) | increase of the LH level (dose of 25 ng) | increase of the LH level (dose of 50 ng) | potency compared among the three decapeptides I, II, III (rat, in vivo) | mμg LH/ml serum before (dose level 25 μg) | mμg LH/ml serum after (dose level 200 μg, after injection) | mμg LH/ml serum before (dose level 200 μg)
1 | CC(C)C[C@H](NC(=O)CNC(=O)[C@H](Cc1ccc(O)cc1)NC(=O)[C@H](CO)NC(=O)[C@H](Cc1c[nH]c2ccccc12)NC(=O)[C@H](Cc1c[nH]cn1)NC(=O)[C@@H]1CCC(=O)N1)C(=O)N[C@@H](CCCNC(=N)N)C(=O)N1CCC[C@H]1C(=O)NCC(N)=O [I, pGlu-His-Trp-Ser-Tyr-Gly-Leu-Arg-Pro-Gly-NH2] | 1 to 25 ng | 30 times | maximum increase | most potent | – | – | –
2 | CC(C)C[C@H](NC(=O)CNC(=O)[C@H](Cc1ccc(O)cc1)NC(=O)[C@H](CO)NC(=O)[C@H](Cc1c[nH]c2ccccc12)NC(=O)[C@H](Cc1c[nH]cn1)NC(=O)[C@@H]1CCC(=O)N1)C(=O)N[C@@H](CCCNC(=N)N)C(=O)N1CCC[C@H]1C(=O)NCC(=O)O [II, pGlu-His-Trp-Ser-Tyr-Gly-Leu-Arg-Pro-Gly-OH] | – | – | – | – | 4.4 mμg LH/ml serum and 5.8 mμg LH/ml serum | > 285.0 mμg LH/ml serum | < 4.0 mμg LH/ml serum and 4.0 mμg LH/ml serum
